In BindingDB's records for doi:10.1021/jm070370z (Ligand Pharmaceuticals, 2007):

Target: T1, Glucocorticoid receptor (Homo sapiens, UniProt P04150)
T1 sequence (P04150 whole entry): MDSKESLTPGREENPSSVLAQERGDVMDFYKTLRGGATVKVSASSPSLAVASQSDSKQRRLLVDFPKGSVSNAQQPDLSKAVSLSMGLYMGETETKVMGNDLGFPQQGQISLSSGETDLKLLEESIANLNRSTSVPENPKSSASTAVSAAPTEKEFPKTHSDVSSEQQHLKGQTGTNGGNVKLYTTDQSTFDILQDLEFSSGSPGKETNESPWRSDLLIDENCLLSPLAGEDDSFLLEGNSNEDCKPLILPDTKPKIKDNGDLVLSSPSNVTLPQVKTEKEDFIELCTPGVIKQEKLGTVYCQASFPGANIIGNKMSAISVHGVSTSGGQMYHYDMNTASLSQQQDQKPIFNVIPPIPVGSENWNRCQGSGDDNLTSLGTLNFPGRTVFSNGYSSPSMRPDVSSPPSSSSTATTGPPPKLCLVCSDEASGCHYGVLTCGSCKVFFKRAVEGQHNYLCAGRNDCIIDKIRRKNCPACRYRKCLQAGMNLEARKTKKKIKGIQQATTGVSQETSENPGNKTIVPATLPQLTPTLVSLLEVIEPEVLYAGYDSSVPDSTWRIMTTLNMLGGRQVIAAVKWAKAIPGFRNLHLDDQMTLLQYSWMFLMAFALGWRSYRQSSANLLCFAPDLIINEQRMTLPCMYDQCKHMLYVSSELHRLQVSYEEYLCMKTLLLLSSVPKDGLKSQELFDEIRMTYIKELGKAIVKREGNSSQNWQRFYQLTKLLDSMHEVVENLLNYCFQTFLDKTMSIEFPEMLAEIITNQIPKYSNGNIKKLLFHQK
Assay: GR-Mediated Antagonist Activity Assay and IL-6 Repression Assay
Settings: pH 7.5
Description: Potencies of compounds are reported as the concentration at which they reach half their antagonist (IC50) activity. IL-6 Repression Assay- The GR-mediated repression of IL-6 production in a human fibroblast (NHDFneo) cell line is measured with a modified ELISA assay.

| IC50 [nM] | EC50 [nM] | Structure (SMILES) |
| --- | --- | --- |
| 0.9 | – | CCCCC(O)c1ccsc1/C=C1\Oc2ccc(O)c(OC)c2-c2ccc3c(c21)C(C)=CC(C)(C)N3 (stereo unspecified) [(18Z)-18-{[3-(1-hydroxypentyl)thiophen-2-yl]methylidene}-12-methoxy-3,5,5-trimethyl-17-oxa-6-azatetracyclo[8.8.0.0^{2,7}.0^{11,16}]octadeca-1(10),2(7),3,8,11,13,15-heptaen-13-ol] |
| 0.2 | 0.2 | COc1c(O)ccc2c1-c1ccc3c(c1/C(=C/c1sccc1[C@H](O)C(F)(F)F)O2)C(C)=CC(C)(C)N3 [(18Z)-12-methoxy-3,5,5-trimethyl-18-({3-[(1S)-2,2,2-trifluoro-1-hydroxyethyl]thiophen-2-yl}methylidene)-17-oxa-6-azatetracyclo[8.8.0.0^{2,7}.0^{11,16}]octadeca-1(10),2(7),3,8,11,13,15-heptaen-13-ol] |
| 1 | – | COc1c(O)ccc2c1-c1ccc3c(c1C(=Cc1sccc1C(=O)C1CCCCC1)O2)C(C)=CC(C)(C)N3 [(18Z)-18-[(3-cyclohexanecarbonylthiophen-2-yl)methylidene]-12-methoxy-3,5,5-trimethyl-17-oxa-6-azatetracyclo[8.8.0.0^{2,7}.0^{11,16}]octadeca-1(10),2(7),3,8,11,13,15-heptaen-13-ol] |
| 0.6 | 1.4 | COc1c(O)ccc2c1-c1ccc3c(c1/C(=C/c1sccc1[C@@H](O)C(F)(F)F)O2)C(C)=CC(C)(C)N3 [(18Z)-12-methoxy-3,5,5-trimethyl-18-({3-[(1R)-2,2,2-trifluoro-1-hydroxyethyl]thiophen-2-yl}methylidene)-17-oxa-6-azatetracyclo[8.8.0.0^{2,7}.0^{11,16}]octadeca-1(10),2(7),3,8,11,13,15-heptaen-13-ol] |
